Data published in patent US20260042755A1, “GPR6 INVERSE AGONISTS” (MapLight Therapeutics, Inc., priority 2022, published 2026).
pIC50: −log10 of the molar value.

Tests used:
Assay type in all cases: cell-based
GPR6 = target: T1, GPR6 (Homo sapiens, UniProt P46095); test: GPR6 antagonist functional cAMP assay (LANCE Ultra cAMP TR-FRET, CHO cells stably expressing GPR6)
T1 construct: expressed in transfected cells; host or cells: CHO cells
How it was run: (§1)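 Read-out was TR-FRET cAMP signal at 665 nm after 1 h at room temperature, following 45 min compound exposure at 37 °C. Assay buffer contained 0.1% BSA and 150 μM Ro 20-1724. Antagonist IC50s were fitted with a 4-parameter logistic against DMSO and reference controls.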

hERG = target: T2, hERG (Homo sapiens, UniProt Q12809); test: hERG assay (whole-cell manual patch clamp, stably-transfected HEK293/hERG cells); conditions: tail current, test concentrations 0.1-30 μM, read-out: hERG Assay GMean IC50
T2 construct: expressed in transfected cells; host or cells: HEK293
Method: Stably-transfected HEK293/hERG cells were seeded on poly-ornithine coated glass coverslip and incubated 3-24 h in 35 mm dishes before transferring to the recording chamber. The recording chamber on the stage of a Nikon inverted microscope is continuously perfused with extracellular solution (1-1.5 ml/min). Electrodes were pulled, polished and filled with intracellular solution (tip resistance ˜3-5MΩ). After establishing a tight seal (resistances 1GΩ) between pipette tip and cell membrane, a brief suction is applied to rupture the patched membrane to establish the whole-cell patch clamp configuration. Cells are voltage clamped at −80 mV. The cell was first depolarized to +40 mV for 2s to activate hERG current, and then clamped to −40 mV for 3s to record a tail current. Test articles in various concentrations controlled by a voltage command 8 pinch valve superfusion system were delivered to the proximity of the test cell to record hERG current changes under different conditions with recording done within 30 min.
Intracellular solution (in mM): 130 KCl, 1.0 MgCl2, 5.0 EGTA, 10 HEPES, 5.0 Mg-ATP; adjust pH to 7.25 with 1M KOH; osmolarity approximately at 280 mOsm. Extracellular solution (in mM): 137 NaCl, 1.8 CaCl2, 1.0 MgCl2, 4.0 KCl, 10 Glucose, 10 HEPES; adjust pH to 7.4 with 1 M NaOH; osmolarity approximately at 295 mOsm. Original compound was dissolved in 100% DMSO, then serial diluted with DMSO to respective 1000× of test concentration to make DMSO sub-stocks. The DMSO sub-stocks were diluted 1000 fold to testing solutions (0.1, 0.3, 1, 3, 10, and 30 μM) using extracellular solution. Rapid exposure to test compound was achieved by utilizing a multichannel solenoid-operated flow system. Testing compounds were sequentially applied in increasing order of concentrations after initial application of vehicle solution on EPC-10 manual patch clamping device with the following: • Amplifier: HEKA EPC-10 USB • Nikon Ti-S Inverted Microscope • MP-285/R micromanipulator system • DAD-8VCPP voltage command Pinch valve superfusion system • TMC Shock Absorption Platform • Peristaltic Pump • Sutter Puller • Vapor pressure osmometer • Temperature controller

GPR3 = target: T3, GPR3 (Homo sapiens, UniProt P46089); test: GPR3 antagonist functional cAMP assay (LANCE Ultra cAMP TR-FRET, CHO cells stably expressing GPR3)
T3 construct: expressed in transfected cells; host or cells: CHO cells
How it was run: as §1

[1] = CHO cells stably expressing GPR6, cAMP assay
[2] = CHO cells stably expressing GPR3, cAMP assay

T3 sequence (P46089 whole entry, species assumed): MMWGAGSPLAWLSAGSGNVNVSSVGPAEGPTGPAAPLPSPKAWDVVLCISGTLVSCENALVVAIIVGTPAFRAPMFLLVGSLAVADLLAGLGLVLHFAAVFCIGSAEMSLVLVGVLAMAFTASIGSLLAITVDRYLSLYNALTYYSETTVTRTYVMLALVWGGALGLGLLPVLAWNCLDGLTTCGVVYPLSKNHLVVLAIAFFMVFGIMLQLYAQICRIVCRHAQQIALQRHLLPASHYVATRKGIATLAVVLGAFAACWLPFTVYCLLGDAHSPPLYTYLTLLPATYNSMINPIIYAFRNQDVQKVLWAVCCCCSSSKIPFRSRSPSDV
T1 sequence (P46095 whole entry): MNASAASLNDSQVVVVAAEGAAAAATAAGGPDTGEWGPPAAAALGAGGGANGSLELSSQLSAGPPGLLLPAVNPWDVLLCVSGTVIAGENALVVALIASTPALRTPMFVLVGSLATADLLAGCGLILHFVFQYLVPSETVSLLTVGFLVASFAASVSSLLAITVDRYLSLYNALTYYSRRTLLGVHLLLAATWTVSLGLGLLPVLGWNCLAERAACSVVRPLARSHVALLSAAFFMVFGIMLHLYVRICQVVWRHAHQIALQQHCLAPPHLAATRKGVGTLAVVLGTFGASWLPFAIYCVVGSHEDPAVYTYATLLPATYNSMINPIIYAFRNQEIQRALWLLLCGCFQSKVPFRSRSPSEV
T2 sequence (Q12809 whole entry): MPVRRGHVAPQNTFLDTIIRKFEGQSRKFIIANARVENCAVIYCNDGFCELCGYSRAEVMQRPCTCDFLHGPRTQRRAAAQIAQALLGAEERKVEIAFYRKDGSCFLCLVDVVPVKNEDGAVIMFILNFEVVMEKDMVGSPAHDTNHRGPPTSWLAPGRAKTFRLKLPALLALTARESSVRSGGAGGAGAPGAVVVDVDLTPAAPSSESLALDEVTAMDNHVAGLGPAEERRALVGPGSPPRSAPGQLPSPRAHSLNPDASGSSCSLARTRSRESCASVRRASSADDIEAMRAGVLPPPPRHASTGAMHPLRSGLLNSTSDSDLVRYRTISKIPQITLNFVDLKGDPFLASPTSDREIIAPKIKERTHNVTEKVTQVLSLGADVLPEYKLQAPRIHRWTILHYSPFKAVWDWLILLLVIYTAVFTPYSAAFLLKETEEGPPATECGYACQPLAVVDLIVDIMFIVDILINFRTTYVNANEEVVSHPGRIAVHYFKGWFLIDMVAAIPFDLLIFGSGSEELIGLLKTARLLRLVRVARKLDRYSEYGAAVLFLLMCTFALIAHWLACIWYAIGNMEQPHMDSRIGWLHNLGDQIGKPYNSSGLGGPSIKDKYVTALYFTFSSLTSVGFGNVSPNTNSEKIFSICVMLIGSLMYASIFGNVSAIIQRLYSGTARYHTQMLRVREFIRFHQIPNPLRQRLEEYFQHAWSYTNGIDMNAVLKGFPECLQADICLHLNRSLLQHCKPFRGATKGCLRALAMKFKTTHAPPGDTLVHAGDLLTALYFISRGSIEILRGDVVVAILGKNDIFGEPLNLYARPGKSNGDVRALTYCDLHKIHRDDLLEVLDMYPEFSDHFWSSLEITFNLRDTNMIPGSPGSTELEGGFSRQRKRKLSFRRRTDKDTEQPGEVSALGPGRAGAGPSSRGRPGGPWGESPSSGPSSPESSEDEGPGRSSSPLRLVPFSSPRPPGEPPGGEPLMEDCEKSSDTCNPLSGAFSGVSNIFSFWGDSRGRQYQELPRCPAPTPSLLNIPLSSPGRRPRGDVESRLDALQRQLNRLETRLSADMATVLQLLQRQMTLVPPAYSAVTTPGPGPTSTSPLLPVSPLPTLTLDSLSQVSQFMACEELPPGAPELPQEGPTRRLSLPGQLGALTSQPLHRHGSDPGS

| pIC50 (GPR6; [1]) | pIC50 (GPR3; [2]) | pIC50 (GPR6; procedure of Example 24) | pIC50 (GPR3; procedure of Example 24) | SMILES | pIC50 (hERG) |
| --- | --- | --- | --- | --- | --- |
| > 7.00 | 4.52 to 6.00 | – | – | CCn1cc(-c2nc3cnc([C@H](O)C(C)(C)O)cc3nc2N2CCN(Cc3ccc(F)cc3F)CC2)cn1 (single isomer, unassigned) [Compound 575] | 4.66 |
| 6.00 to 7.00 | 4.52 to 6.00 | – | – | CC(C)(O)[C@@H](O)c1cc2nc(N3CCN(Cc4ccc(F)cc4F)CC3)c(-c3cnn(C4CC4)c3)nc2cn1 (single isomer, unassigned) [Compound 577] | 4.87 |
| – | – | 6.00 to 7.00 | 4.52 to 6.00 | CC(C)(O)C(O)c1cc2nc(-c3cnn(CF)c3)c(N3CCN(Cc4ccccc4F)CC3)nc2cn1 (single isomer, unassigned) [Compound 707] | < 4.52 |
| – | – | 6.00 to 7.00 | 4.52 to 6.00 | CC(C)(O)[C@](C)(O)c1cc2nc(-c3cnn(CF)c3)c(N3CCN(Cc4ccccc4F)CC3)nc2cn1 (single isomer, unassigned) [Compound 716] | 4.61 |
